Values of other authors in US20070292469A1, “Antimicrobial composition” (priority 2005, published 2007).

Tested on: wide range of microorganisms
Conditions: literature statement (Block, Disinfection, Sterilization, and Preservation 4th ed. 1991)

Substance | antimicrobial activity
α-4-[1-tris(2-hydroxyethyl) ammonium-2-butenyl] poly[1-dimethylammonium-2-butenyl]-ω-tris(2-hydroxyethyl)ammonium chloride [polyquaternium 1] | significant antimicrobial activity
monoethanolamines | lack dramatic antimicrobial activity
